# Laboratory results reported in patent EP1129352B1 (priority 1998, dated 2000).
# Like-named read-outs stand apart in the source and are kept apart here. Numbered stars: 1 amine (or outer) side, 2 acyl side, 3 side chain; on linkers, the order of the positions; unused ones are H or OH. Bridge positions count the residues as written; N and C are the ends. Square brackets hold non-standard residues; d marks the D form. Peptide text beside a SMILES is read from it. Adda = CO[C@@H](Cc1ccccc1)[C@@H](C)/C=C(C)/C=C/[C@H](N[*:1])[C@H](C)C(=O)[*:2]; dAsp(3S-Me) = C[C@H](C(=O)[*:3])[C@@H](N[*:1])C(=O)[*:2]; d(γGlu) = O=C(O)[C@@H](CCC(=O)[*:2])N[*:1]; NMeDha = C=C(NC)C(=O)O
# How the values were obtained:
# protein phosphatase 2A [1] = biological target: T1, protein phosphatase 2A (Homo sapiens, UniProt P67775); test: biochemical; format: binding
# T1 construct: purchased Upstate Biotechnology (Lake Placid, NY)
# protein phosphatase 2A [2] = biological target: T1, protein phosphatase 2A; test: biochemical; format: biochemical
# [3] = read-out: % activity Competitive binding assay
# [4] = read-out: % activity Protein phosphatase assay
# [5] = 0.4%, preincubated 30 minutes on ice, relative to control, ± SEM
# T1 sequence (P67775 whole entry): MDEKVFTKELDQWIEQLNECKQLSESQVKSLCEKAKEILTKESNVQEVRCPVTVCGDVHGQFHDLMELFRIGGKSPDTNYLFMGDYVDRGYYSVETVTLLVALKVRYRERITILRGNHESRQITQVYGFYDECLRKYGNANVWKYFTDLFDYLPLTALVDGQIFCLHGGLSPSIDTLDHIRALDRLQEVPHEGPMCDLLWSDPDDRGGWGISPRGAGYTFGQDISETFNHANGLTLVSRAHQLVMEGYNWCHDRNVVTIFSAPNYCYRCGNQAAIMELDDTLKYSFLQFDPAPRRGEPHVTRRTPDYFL
molecule,measurement,setting,value
Nc1ncnc2c1ncn2[C@@H]1O[C@H](COP(=O)(O)OP(=O)(O)OP(=O)(O)O)[C@@H](O)[C@H]1O [ATP],activity at 500 µM,protein phosphatase 2A [1]; [3],102 ± 1.7%
same,activity at 2000 µM,protein phosphatase 2A [1]; [3],103.3 ± 0.2%
same,activity at 500 µM,protein phosphatase 2A [2]; [4],29.8 ± 5.6%
same,activity at 2000 µM,protein phosphatase 2A [2]; [4],9.8 ± 3.4%
C[C@H](CCC(=O)NCCC[N+](C)(C)CCCS(=O)(=O)[O-])[C@H]1CC[C@H]2[C@@H]3[C@H](O)C[C@@H]4C[C@H](O)CC[C@]4(C)[C@H]3C[C@H](O)[C@]12C [CHAPS],% activity Competitive binding assay,protein phosphatase 2A [1],90.9 ± 9.9%
same,% activity Protein phosphatase assay,protein phosphatase 2A [2],138.0 ± 34.4%
"C[S+](C)[O-] [DMSO, dimethyl sulfoxide]",% activity Competitive binding assay,protein phosphatase 2A [1],72.8 ± 2.3%
same,% activity Protein phosphatase assay,protein phosphatase 2A [2],97.9 ± 3.3%
CO [MeOH],% activity Competitive binding assay,protein phosphatase 2A [1]; 10%,73.9 ± 0.5%
same,% activity Protein phosphatase assay,"protein phosphatase 2A [2]; 10%, preincubated 30 minutes on ice, relative to control, ± SEM",87.4 ± 4.1%
[Cl-].[Na+] [NaCl],% activity Competitive binding assay,protein phosphatase 2A [1],41.2 ± 0.7%
same,% activity Protein phosphatase assay,protein phosphatase 2A [2],44.4 ± 1.6%
[F-].[Na+] [NaF],% activity Competitive binding assay,protein phosphatase 2A [1]; 5 mM,102.0 ± 3.3%
same,% activity Competitive binding assay,protein phosphatase 2A [1]; 50 mM,101.5 ± 1.9%
same,% activity Protein phosphatase assay,"protein phosphatase 2A [2]; 5 mM, preincubated 30 minutes on ice, relative to control, ± SEM",62.6 ± 0.4%
same,% activity Protein phosphatase assay,"protein phosphatase 2A [2]; 50 mM, preincubated 30 minutes on ice, relative to control, ± SEM",7.7 ± 1.4%
O=P([O-])([O-])OP(=O)([O-])[O-].[Na+].[Na+].[Na+].[Na+] [NaPPi],% activity Competitive binding assay,protein phosphatase 2A [1]; 0.05 mM,101.4 ± 4.1%
same,% activity Protein phosphatase assay,"protein phosphatase 2A [2]; 0.05 mM, preincubated 30 minutes on ice, relative to control, ± SEM",14.2 ± 1.2%
CC#N [acetonitrile],% activity Competitive binding assay,protein phosphatase 2A [1],90.4 ± 5.4%
same,% activity Protein phosphatase assay,protein phosphatase 2A [2],88.2 ± 2.7%
"COC[C@@H]([C@H](O)[C@H](O)C(=O)NCC[C@H](C)c1nc(/C=C/C[C@@H]2O[C@]3(C[C@@H](O)[C@@H]2C)O[C@H]([C@H](C[C@H](O)[C@H](C)[C@H](O)[C@H](C)/C=C(C)/C(C)=C/C=C/C(C)=C\C#N)OC)[C@H](OP(=O)(O)O)C3(C)C)co1)N(C)C [calyculin A, reference compound]",IC50,protein phosphatase 2A [1]; read-out: IC50,0.251 nM
"C=C1C(=O)N[C@H](C)C(=O)N[C@@H](CC(C)C)C(=O)N[C@@H](C(=O)O)[C@H](C)C(=O)N[C@@H](CCCNC(=N)N)C(=O)N[C@@H](/C=C/C(C)=C/[C@H](C)[C@H](Cc2ccccc2)OC)[C@H](C)C(=O)N[C@@H](C(=O)O)CCC(=O)N1C [microcystin-LR, reference compound] (R[Adda][d(γGlu)][NMeDha][dA]L[dAsp(3S-Me)]-OH; lactam N-7)",IC50,protein phosphatase 2A [1]; read-out: IC50,0.017 nM
"C/C=C1/C(=O)N[C@@H](C(=O)O)[C@H](C)C(=O)N[C@@H](CCCNC(=N)N)C(=O)N[C@@H](/C=C/C(C)=C/[C@H](C)[C@H](Cc2ccccc2)OC)[C@H](C)C(=O)N[C@@H](C(=O)O)CCC(=O)N1C [nodularin, reference compound]",IC50,protein phosphatase 2A [1]; read-out: IC50,0.015 nM
"C=C1[C@@H](O)[C@@H]2O[C@]3(CC[C@H](/C=C/[C@@H](C)[C@@H]4CC(C)=C[C@@]5(O[C@H](C[C@@](C)(O)C(=O)O)CC[C@H]5O)O4)O3)CC[C@H]2O[C@@H]1[C@@H](O)C[C@H](C)[C@H]1O[C@@]2(CCCCO2)CC[C@H]1C [okadaic acid, reference compound]",IC50,protein phosphatase 2A [1],0.1 nM
"CO[C@H]([C@H](O)CC(=O)[C@@H](C)[C@@H](O)CC[C@@H](C)[C@@H]1O[C@]2(CC[C@@H](C)[C@H](CC[C@H](C)C(C)=O)O2)CC[C@@H]1C)[C@H](OC(=O)C[C@@H](O)C1=C(C)C(=O)OC1=O)C(C)C [tautomycin, reference compound]",IC50,protein phosphatase 2A [1],0.562 nM
Nonidet P-40,% activity Competitive binding assay,protein phosphatase 2A [1]; 0.4%,106.0 ± 2.0%
same,% activity Protein phosphatase assay,protein phosphatase 2A [2]; [5],61.1 ± 1.3%
Triton X-100,% activity Competitive binding assay,protein phosphatase 2A [1]; 0.4%,122.3 ± 1.0%
same,% activity Protein phosphatase assay,protein phosphatase 2A [2]; [5],60.2 ± 5.7%
microcystin-YR [reference compound],IC50,protein phosphatase 2A [1]; read-out: IC50,0.075 nM
